Reference: US20240285773A1, “METHODS OF TREATING MYELODYSPLASTIC SYNDROME AND MONITORING THE TREATMENT” (Geron Corporation, priority 2023, published 2024)
Several values for one entry are separate records, joined by “and”; a condition that tells them apart may be missing. Equal values may be shown once. [nps] = N3'→P5' thiophosphoramidate linkage; {Palm} = palmitoyl lipid

Assays:
[1] = test system: patients with baseline cytogenetic abnormality; experiment: Phase 3 trial: cytogenetic response per IWG 2006; type: in vivo, human
From the text: The primary end point was rate of RBC-TI for 8 consecutive weeks or longer. Key secondary end points included rate of 24-week TI, duration of TI, and the rate of hematologic response (hematologic improvement-erythroid [HI-E], based on modified International Working Group [IWG] 2006 criteria, and HI-E per revised IWG 2018). Additional secondary end points included relative change in number of RBC transfusions received by patients, relative change in hemoglobin, and safety. The changes in mutational status and in patient-reported fatigue over time (assessed by the Functional Assessment of Chronic Illness Therapy [FACIT] Fatigue Scale) were exploratory end points. Subgroup analyses were performed including baseline presence or absence of RS, prior RBC transfusion burden (≥4 to ≤6 or >6 RBC units/8-weeks during a 16-week period prior to randomization), and low or intermediate-1 IPSS risk categories. Subgroup analyses were also performed, including baseline mutation status as well as telomerase activity (TA), telomere lengths (TL), and human telomerase reverse transcriptase (hTERT) levels. Peripheral blood hematology, bone marrow evaluation, mutation assessment, and cytogenetic evaluation were performed centrally and responses assessed by an independent review committee (IRC). Rate of 1-year RBC-TI was reported as a post hoc analysis.
As noted above, patients with heavily RBC-TD-ESA relapsed/refractory or ineligible non-del(5q) LR-MDS naive to lenalidomide and hypomethylating agents (len/HMA) received 2-hr infusion of imetelstat 7.5 mg/kg or placebo every 4 weeks. An independent review committee assessed abnormal cytogenetic profiles of bone marrow samples taken pre- and every 24 weeks post-treatment to assess cytogenetic response of complete or partial remission. Of the 178 randomized patients, 22.0% in the imetelstat group and 21.7% in the placebo group had baseline cytogenetic abnormalities and post-treatment samples.

TET2 = experiment: Gene mutation analysis (NGS): TET2 VAF and clinical response; type: in vivo, human; conditions: imetelstat group
From the text: VAF for the target genes can be determined and/or measured using any convenient methods. In one such method, whole blood collected in an EDTA tube is used to perform Next Generation Sequencing (NGS), for example, using LeukoVantage®. NGS using any other sequencing platform can be used, for example, nanopore sequencing, paired-end sequencing, Ion Torrent sequencing, and single molecule real time (SMRT) sequencing. An MDS gene panel can be used. For example, a gene panel containing one or more of SF3B1, TET2, DNMT3A and ASXL1 can be used. […] The percentage of mutation reads will be reported and can be used to assess the size of the clonal population. VAF is the percentage of sequence reads observed matching a specific DNA variant divided by the overall coverage at that locus. […]
VAF changes were assessed from blood taken pre- and every 12 weeks post-treatment in patients with greater than or equal to 5% variant allele at baseline and >1 post-baseline assessment. T-tests evaluated group comparison, Fisher's exact test evaluated association, and linear regression evaluated correlation. […]
Blood samples were collected at baseline and during study visits approximately every 12 weeks. […] The lower limit of sensitivity is 5% mutated alleles in a mixed population; the percentage of mutation reads is reported and used to assess the size of the clonal population.

patients with LR-MDS = experiment: Patient-reported fatigue (FACIT Fatigue Scale); type: in vivo, human; conditions: PRO population
From the text: To measure patient-reported fatigue, data were collected using the validated Functional Assessment of Chronic Illness Therapy (FACIT) Scale and analyzed in all randomized patients with available fatigue data at baseline (PRO population). The FACIT is a 13-item questionnaire measuring fatigue during daily activity. Proportion of sustained, meaningful deterioration/improvement was defined as percentage of pts with ≥3-point decrease/increase on the FACIT Fatigue Scale (0-52) for ≥2 consecutive treatment cycles. Additionally, time-to-deterioration/improvement was estimated by Kaplan-Meier analysis. Sensitivity analyses were performed in the intent-to-treat population and with alternate definitions of meaningful deterioration.
Exploratory End Point Patient-Reported Fatigue: Proportion of sustained meaningful deterioration/improvement was defined as percentage of patients with ≥3-point decrease/increase on the Functional Assessment of Chronic Illness Therapy (FACIT) Fatigue Scale (0-52) for ≥2 consecutive treatment cycles.
Meaningful improvement in FACIT Fatigue: Psychometric supportive evidence for the use of the FACIT Fatigue in the context of LR-MDS confirms the previously published threshold of a 3-point change for meaningful within-patient change for the FACIT Fatigue.

bone marrow RS cells = experiment: Reduction in bone marrow ring sideroblasts; set-up: species or system human; conditions: in vivo
From the text: FIG. 20. […] Also, RBC-TI responders were higher in patients achieving ≥50% reduction in central bone marrow RS.

[2] = 26 patients with baseline abnormality
[3] = ≥1-year TI responders with baseline abnormality (7)

## Imetelstat: first-in-class telomerase inhibitor; synthetic lipid-conjugated 13-mer oligonucleotide N3′→P5′-thiophosphoramidate (TAGGGTTAGACAA; all [nps], 5' {Palm}, sugars by position and methylation of C not given here)
[1]; [2]
  Cytogenetic CR or PR: (35) %
  Cytogenetic CR or PR, patients: 9 N
  Cytogenetic complete response (CR): (19) %
  Cytogenetic complete response (CR), patients: 5 N
  Cytogenetic partial response (PR): (15) %
  Cytogenetic partial response (PR), patients: 4 N
  Cytogenetic response not evaluable: (46) %
  Cytogenetic response not evaluable, patients: 12 N
  Does not meet cytogenetic CR or PR criteria: (19) %
  Does not meet cytogenetic CR or PR criteria, patients: 5 N
[1]; 26 patients with baseline abnormality, listed as imetelstat
  Cytogenetic CR or PR: 35% and 34.6%
[1]; in vivo
  Cytogenetic CR or PR, % difference vs placebo: 19% (−16, 44)
[1]; [3]
  Did not meet the response criteria, patients: 1 patient
  cCR: 57%
  cCR, patients: 4 patients
  cPR: 29%
  cPR, patients: 2 patients
TET2; n=32
  Pearson's r: maximum % reduction in TET2 VAF vs maximum change in hemoglobin: −0.659
TET2; n=38
  Pearson's r: maximum % reduction in TET2 VAF vs duration of TI: −0.577
Patients with LR-MDS
  HR, time to first sustained meaningful improvement in fatigue vs placebo: 1.34
  Median time to first sustained, meaningful improvement in fatigue: 28.3 weeks
Patients with LR-MDS; 118 patients
  Patients with any episode of sustained, meaningful deterioration in fatigue: 43.2%
  Patients with sustained, meaningful improvement in fatigue: 50.0%
Bone marrow RS cells
  Patients achieving ≥50% reduction in bone marrow RS cells: 41%
